# Laboratory results taken from article PMC12032720, “Pharmacological assessment of the extract and a novel compound of Bacillus velezensis DM derived from the rhizosphere of Datura metel L. with microbial molecular screening” (BMC Complementary Medicine and Therapies, 2025).
# “And” between values parts separate entries of the source, which are not always exact repeats. Equal values may be shown once. Read-outs that look alike come from different tables or passages of the source.
# Key:
# [1] = system: HCT-116; assay: MTT cytotoxicity on colon cancer cell line HCT-116; type: cell-based; details: Homo sapiens, mean ± SD
# Experimental: (§1) Diverse human cancer cell lines: liver cancer cells (HepG2), colon cancer cell line (HCT-116), and breast cancer cell line (MCF-7) were brought from VACSERA Tissue Culture Unit (Giza, Egypt). RPMI-1640 media enhanced with 10% fetal bovine serum and […] gentamycin were employed to culture the cells. The cells were incubated at 37 °C with 5% CO2. To determine the cytotoxic activity, cells were treated with various doses (0–100 µg/ mL) of B. velezensis DM extract or Doxorubicin, and their viability compared to untreated controls was assessed. Compound (1) cytotoxic potential was evaluated against HCT-116 as well as normal epithelial cells (THLE2) to calculate the selectivity index (SI) as formerly depicted.
# (§2) IC50 was calculated by the Graph Pad Prism (version 8, San Diego, CA, USA) (n = 3 replicates). Data are presented as mean ± SD.
# [2] = system: THLE-2 normal cell line; assay: Cytotoxicity on normal epithelial cells THLE-2 (selectivity index); type: cell-based; details: for IC50: Homo sapiens, THLE-2, normal cell line, mean ± SD; for SI (selectivity index): THLE-2 versus HCT-116
# Experimental: as §1, §2
# [3] = Antioxidant DPPH assay; details: mean ± SD
# Experimental: Antioxidant DPPH assay: To inspect the antioxidant potential of B. velezensis DM extract, a methodology reported by Nahar et al. was used compared to Trolox. IC50 was calculated by the Graph Pad Prism (version 8, San Diego, CA, USA) (n = 3 replicates). Data are presented as mean ± SD.
# [4] = Antioxidant ABTS assay; details: mean ± SD
# Experimental: Antioxidant ABTS assay: the capacity of B. velezensis DM extract to scavenge ABTS radical cations was assessed compared to Quercetin at a range of concentrations, including 300, 150, 75, 25, and 10 µg/ mL [38].
# as §2
# [5] = compound (1) experiment, read-out: IC50 HCT-116 (Table 4)
SMILES,"IC50 [1, 5] [µg/mL]",IC50 [2] [µg/mL],SI (selectivity index) [2],"IC50 ([1]; MTT, 0–100 µg/mL, n = 3, read-out: IC50 HCT-116 (Table 3)) [µg/mL]",DPPH (IC50) [3] [µg/mL],ABTS (IC50) [4] [µg/mL]
"CNC=C(CC(O)C(O)CO)NC (stereo not drawn) [Compound (1), 5,6-di(methylamino)hex-5-ene-1,2,3-triol]",27 ± 1.85,68.7 ± 3.34,2.5 and 2.54,–,–,–
"COc1cccc2c1C(=O)c1c(O)c3c(c(O)c1C2=O)C[C@@](O)(C(=O)CO)C[C@@H]3O[C@H]1C[C@H](N)[C@H](O)[C@H](C)O1 [Doxorubicin (DOX), Doxorubicin]",11.7 ± 0.4,17.4 ± 1.25,1.49,4.82 ± 0.18,–,–
Cc1c(C)c2c(c(C)c1O)CCC(C)(C(=O)O)O2 (stereo not drawn) [Trolox],–,–,–,–,113.31 ± 4.2,–
O=c1c(O)c(-c2ccc(O)c(O)c2)oc2cc(O)cc(O)c12 [Quercetin],–,–,–,–,–,42.13 ± 1.92
